The source of these data is PubChem BioAssay (NCI).

Assay in all cases: NCI tumour cell line growth inhibition, 48 h
In experiment [1] the test system is HCT-116 colon.
Experiment [2] concerns ACHN renal.
Experiment [3] deals with CAKI-1 renal.
Experiment [4] relates to SF-295 CNS.
The subject of experiment [5] is UO-31 renal.
Experiment [6] has as its system U251 CNS.
For experiment [7], the system named is SNB-19 CNS.
Experiment [8] deals with CCRF-CEM leukemia.
For experiment [9], the system named is DU-145 prostate.
Experiment [10] has as its system MDA-MB-435.

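All cell lines were grown in 96-well plates and treated with compound for 48 hours. GI50 is the concentration that inhibits growth by half. Definition used: TGI = concentration required for complete inhibition of growth.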

Turning to `O=C(c1ccccc1)[C@H]1Nc2ccc(Cl)cc2[C@H]2c3ccccc3O[C@H]21`, the TGI in experiment [1] is 34.3 µM; in experiment [2] it was 28.7 µM; in [3] it was 29.1 µM; in experiment [4], 28.9 µM; in experiment [5], 18.2 µM; in [6] it was 29.2 µM. In experiment [7], this compound yielded a TGI of 29.3 µM.
In the case of `COc1ccc(-c2cc(=O)c3c(C)ccnc3[nH]2)cc1`, the GI50 in experiment [1] is 6.43 µM; in experiment [4], 19.5 µM; in [6], 6.3 µM. Further, the TGI in experiment [1] is 39.4 µM; in [2], over 100 µM; in experiment [3], over 100 µM; in experiment [4] it was over 100 µM; in [5], over 100 µM; in [6], over 100 µM. In addition, the TGI is over 100 µM in experiment [7], 44.8 µM in [8] and over 100 µM in experiment [9].
With `O=c1c2ccccc2c(=O)n2n1-c1cccc(c1)CSSCc1cccc-2c1`, the GI50 in [1], in [2], in experiment [3], in [5], in experiment [7] and in experiment [8] was over 100 µM throughout. Further, the TGI in [1], in experiment [2], in experiment [3], in [4], in experiment [5] and in [6] was over 100 µM throughout. For the same compound, the TGI in experiment [7] and in experiment [8] was over 100 µM in each case.
`CC1=NC2(C(=O)O)C3(C(=O)O)N=C(C)OC3(C(F)(F)F)C2(C(F)(F)F)O1` (stereo unspecified): the TGI in [1], in [2], in experiment [3], in experiment [4], in experiment [5] and in experiment [6] was over 100 µM each time. The TGI in experiment [7] and in experiment [8] was over 100 µM in each case.
With `O=C1c2ccccc2C(=O)N1C/C=N/NS(=O)(=O)c1cccc([N+](=O)[O-])c1`, the TGI in [1], in experiment [2], in experiment [3], in experiment [4], in experiment [5] and in experiment [6] was over 100 µM each time. The TGI in experiment [7] and in [8] was over 100 µM throughout.
Turning to `CCOc1ccc2c(c1)[n+]([O-])c(-c1ccccc1)c(N)[n+]2[O-]`, the TGI in experiment [2] was over 100 µM; in [3], 89.4 µM; in [4] it was over 100 µM; in experiment [5] it was over 100 µM; in experiment [6] it was over 100 µM; in experiment [7], over 100 µM. In addition, the TGI in experiment [8] was over 100 µM.
In the case of `CCOP(=O)(OCC)C(C(=O)OC)C(=O)C(=O)Nc1cccc([N+](=O)[O-])c1` (stereo unspecified), the TGI in [1], in experiment [2], in experiment [3], in [4], in [5] and in experiment [6] was over 100 µM throughout. Besides, the TGI in experiment [7] and in experiment [8] was over 100 µM throughout.
As to `CN(N=O)C(=O)NC(CCCCNC(=O)OCc1ccccc1)C(=O)OCc1ccccc1` (stereo unspecified), the TGI in experiment [1] is over 100 µM; in experiment [2], 32.3 µM; in experiment [3], 52.8 µM; in experiment [4], over 100 µM; in experiment [5] it was 38.3 µM; in experiment [6], over 100 µM. For the same compound, the TGI in [7] was over 100 µM; in experiment [8], 57.1 µM.
On to `O=C(O)c1ccccc1NS(=O)(=O)c1ccc(Cl)cc1`, for which the TGI in experiment [1], in experiment [2], in experiment [3], in experiment [5], in [6] and in experiment [7] was over 100 µM throughout. This compound also returned a TGI in experiment [8] of over 100 µM.
With `O=C(O)C1CCCN1` (stereo unspecified), the TGI in [1], in [2], in experiment [4], in experiment [5], in experiment [6] and in experiment [7] was over 100 µM each time. Moreover, the TGI in experiment [10] and in experiment [9] was over 100 µM each time.
As for `COc1cccc2c1C(=O)c1c(O)c3c(c(O)c1C2=O)C[C@@](O)(/C(C)=N/NC(=O)c1cccc([N+](=O)[O-])c1)C[C@@H]3OC1CC(N)C(O)C(C)O1` (stereo partly specified), the GI50 was 0.131 µM in experiment [1]; 0.205 µM in [2]; 0.411 µM in experiment [3]; 0.187 µM in experiment [4]; 0.882 µM in experiment [5]; 0.22 µM in experiment [6]. In addition, the figures for the GI50 in experiment [7], in experiment [8] and in experiment [9] were 0.291 µM, 0.167 µM and 0.272 µM, respectively. Besides, the TGI in experiment [1] is 5.25 µM; in experiment [2], 1.65 µM; in experiment [3], 2.74 µM; in experiment [4], 0.997 µM; in [5], over 22 µM; in [6] it was 14 µM. The results for the TGI in experiment [7], in [8] and in [9] were 12 µM, 4.33 µM and 1.81 µM, respectively.
On to `Clc1ccc2c(NCCCCNc3nc(N4CCOCC4)nc4ccccc34)ccnc2c1`, for which the GI50 is 2.13 µM in experiment [1]; 1.9 µM in experiment [2]; 1.79 µM in experiment [4]; 1.66 µM in experiment [5]; 1.84 µM in experiment [6]; 3.37 µM in experiment [7]. In addition, the values for the GI50 in experiment [10], in experiment [8] and in experiment [9] were 2.4 µM, 3.42 µM and 4.62 µM, respectively. The TGI worked out at 4.63 µM in experiment [1]; 3.6 µM in [2]; 3.73 µM in experiment [4]; 3.12 µM in experiment [5]; 3.66 µM in experiment [6]; 12.6 µM in [7]. Moreover, the figures for the TGI in experiment [10], in experiment [8] and in experiment [9] were 6.18 µM, 9.38 µM and 16.5 µM, respectively.
On to `Cc1cc(C)c2c(c1)CSCc1cc(C)cc(C)c1-2`, for which the TGI in experiment [1] is 60.5 µM; in experiment [2], over 100 µM; in experiment [3], 76.8 µM; in experiment [4] it was 68.3 µM; in [5] it was over 100 µM; in [6], 40.5 µM. Moreover, the TGI in experiment [7] was over 100 µM; in experiment [8] it was 45.5 µM.
